# From patent publication US6376426B1, “Herbicidal 3-(heterocycl-1-yl)-uracils” (BASF Aktiengesellschaft, priority 1999, dated 2002)
# Experiments:
# Assay type in all cases: in vivo
# Stellaria media [1] = test: Pre-emergence herbicidal test, STEME; design: key to herbicidal effect (0-9 scale) STEME / herbicidal rating STEME: A rating 0 indicates growth as untreated control; a rating 9 indicates death; conditions: PRE, 21 days after spraying
# Experimental: (§1) To evaluate their herbicidal activity, compounds according to the invention are tested using a representative range of plants:
# (§2) The pre-emergence tests involve spraying a liquid formulation of the compound onto the soil in which the seeds of the plant species mentioned above has recently been sown.
# (§3) The soil used in the tests is a prepared horticultural loam. The formulations used in the tests are prepared from solutions of the test compounds in acetone containing 0.4% by weight of an alkylphenol/ethylene oxide condensate available under the trade mark TRITON X-155. […] In these tests untreated sown soil are used as controls.
# (§4) The herbicidal effects of the test compounds are assessed visually twenty-one days after spraying the foliage and the soil and are recorded on a 0-9 scale. A rating 0 indicates growth as untreated control, a rating 9 indicates death. An increase of 1 unit on the linear scale approximates to a 10% increase in the level of effect.
# Ipomoea hederacea [2] = test: Post-emergence herbicidal test, IPOHE; design: key to herbicidal effect (0-9 scale) IPOHE / herbicidal rating IPOHE: A rating 0 indicates growth as untreated control; a rating 9 indicates death; conditions: POST, 21 days after spraying
# Experimental: as §1
# (§5) […] After spraying, the plants are placed on greenhouse benches and are cared for in the usual manner, commensurate with conventional greenhouse practices.
# as §4
# Setaria viridis [3] = test: Post-emergence herbicidal test, SETVI; design: key to herbicidal effect (0-9 scale) SETVI / herbicidal rating SETVI: A rating 0 indicates growth as untreated control; a rating 9 indicates death; conditions: POST, 21 days after spraying
# Experimental: as §1, §5, §4
# Hordeum vulgare [4] = test: Pre-emergence herbicidal test, HORVW; conditions: 21 days after spraying
# Experimental: as §1, §2, §3, §4
# Matricaria inodora [5] = test: Pre-emergence herbicidal test, MATIN; design: key to herbicidal effect (0-9 scale) MATIN / herbicidal rating MATIN: A rating 0 indicates growth as untreated control; a rating 9 indicates death; conditions: PRE, 21 days after spraying
# Experimental: as §1, §2, §3, §4
# Glycine max [6] = test: Post-emergence herbicidal test, GLXMA; conditions: 21 days after spraying
# Experimental: as §1, §5, §4
# Ipomoea hederacea [7] = test: Pre-emergence herbicidal test, IPOHE; conditions: 21 days after spraying
# Experimental: as §1, §2, §3, §4
# Echinochloa crus-galli [8] = test: Post-emergence herbicidal test, ECHCG; design: key: A rating 0 indicates growth as untreated control; a rating 9 indicates death; conditions: 21 days after spraying
# Experimental: as §1, §5, §4
# Galium aparine [9] = test: Post-emergence herbicidal test, GALAP; design: key to herbicidal effect (0-9 scale) GALAP / herbicidal rating GALAP: A rating 0 indicates growth as untreated control; a rating 9 indicates death; conditions: POST, 21 days after spraying
# Experimental: as §1, §5, §4
# Glycine max [10] = test: Pre-emergence herbicidal test, GLXMA; conditions: PRE, 21 days after spraying
# Experimental: as §1, §2, §3, §4
# Setaria viridis [11] = test: Pre-emergence herbicidal test, SETVI; design: key to herbicidal effect (0-9 scale) SETVI / herbicidal rating SETVI: A rating 0 indicates growth as untreated control; a rating 9 indicates death; conditions: PRE, 21 days after spraying
# Experimental: as §1, §2, §3, §4
# Abutilon theophrasti [12] = test: Pre-emergence herbicidal test, ABUTH; design: key to herbicidal effect (0-9 scale) ABUTH / herbicidal rating ABUTH: A rating 0 indicates growth as untreated control; a rating 9 indicates death; conditions: PRE, 21 days after spraying
# Experimental: as §1, §2, §3, §4
# Abutilon theophrasti [13] = test: Post-emergence herbicidal test, ABUTH; design: key to herbicidal effect (0-9 scale) ABUTH / herbicidal rating ABUTH: A rating 0 indicates growth as untreated control; a rating 9 indicates death; conditions: POST, 21 days after spraying
# Experimental: as §1, §5, §4
# Galium aparine [14] = test: Pre-emergence herbicidal test, GALAP; design: key to herbicidal effect (0-9 scale) GALAP / herbicidal rating GALAP: A rating 0 indicates growth as untreated control; a rating 9 indicates death; conditions: PRE, 21 days after spraying
# Experimental: as §1, §2, §3, §4
# Zea mays [15] = test: Pre-emergence herbicidal test, ZEAMX; conditions: PRE, 21 days after spraying
# Experimental: as §1, §2, §3, §4
# Triticum aestivum [16] = test: Pre-emergence herbicidal test, TRZAW; conditions: 21 days after spraying
# Experimental: as §1, §2, §3, §4
# Matricaria inodora [17] = test: Post-emergence herbicidal test, MATIN; design: key to herbicidal effect (0-9 scale) MATIN / herbicidal rating MATIN: A rating 0 indicates growth as untreated control; a rating 9 indicates death; conditions: POST, 21 days after spraying
# Experimental: as §1, §5, §4
# Triticum aestivum [18] = test: Post-emergence herbicidal test, TRZAW; conditions: POST, 21 days after spraying
# Experimental: as §1, §5, §4
# Zea mays [19] = test: Post-emergence herbicidal test, ZEAMX; conditions: 21 days after spraying
# Experimental: as §1, §5, §4
# Alopecurus myosuroides = test: Post-emergence herbicidal test, ALOMY; design: key: A rating 0 indicates growth as untreated control; a rating 9 indicates death; conditions: 21 days after spraying
# Experimental: as §1, §5, §4
# Hordeum vulgare [20] = test: Post-emergence herbicidal test, HORVW; conditions: 21 days after spraying
# Experimental: as §1
# These acetone solutions are diluted with water and the resulting formulations applied at dosage levels equivalent to about 1000, 800, 400, 250 or 100 g/ha per hectare of test compound per pot. After spraying, the plants are placed on greenhouse benches and are cared for in the usual manner, commensurate with conventional greenhouse practices.
# as §4
# Stellaria media [21] = test: Post-emergence herbicidal test, STEME; design: key to herbicidal effect (0-9 scale) STEME / herbicidal rating STEME: A rating 0 indicates growth as untreated control; a rating 9 indicates death; conditions: POST, 21 days after spraying
# Experimental: as §1, §5, §4
# Echinochloa crus-galli [22] = test: Pre-emergence herbicidal test, ECHCG; conditions: 21 days after spraying
# Experimental: as §1, §2, §3, §4
compound,measurement,setting,value
Cn1c(C(F)(F)F)cc(=O)n(-n2ccc3cc([N+](=O)[O-])ccc32)c1=O [Example 4],herbicidal effect (0-9 scale) STEME,Stellaria media [1]; 400 g/ha,9
same,herbicidal effect (0-9 scale) STEME,Stellaria media [1]; 800 g/ha,9
same,herbicidal effect (0-9 scale) IPOHE,Ipomoea hederacea [2]; 400 g/ha,9
same,herbicidal effect (0-9 scale) IPOHE,Ipomoea hederacea [2]; 800 g/ha,9
same,herbicidal effect (0-9 scale) SETVI,Setaria viridis [3]; 400 g/ha,9
same,herbicidal effect (0-9 scale) SETVI,Setaria viridis [3]; 800 g/ha,9
same,herbicidal effect (0-9 scale) HORVW,Hordeum vulgare [4]; 400 g/ha,5
same,herbicidal effect (0-9 scale) HORVW,Hordeum vulgare [4]; 800 g/ha,7
same,herbicidal effect (0-9 scale) MATIN,Matricaria inodora [5]; 400 g/ha,9
same,herbicidal effect (0-9 scale) MATIN,Matricaria inodora [5]; 800 g/ha,9
same,herbicidal effect (0-9 scale) GLXMA,Glycine max [6]; 400 g/ha,8
same,herbicidal effect (0-9 scale) GLXMA,Glycine max [6]; 800 g/ha,8
same,herbicidal effect (0-9 scale) IPOHE,Ipomoea hederacea [7]; 400 g/ha,7
same,herbicidal effect (0-9 scale) IPOHE,Ipomoea hederacea [7]; 800 g/ha,8
same,herbicidal effect (0-9 scale) ECHCG,Echinochloa crus-galli [8]; 400 g/ha,8
same,herbicidal effect (0-9 scale) ECHCG,Echinochloa crus-galli [8]; 800 g/ha,9
same,herbicidal effect (0-9 scale) GALAP,Galium aparine [9]; 400 g/ha,8
same,herbicidal effect (0-9 scale) GALAP,Galium aparine [9]; 800 g/ha,9
same,herbicidal effect (0-9 scale) GLXMA,Glycine max [10]; 400 g/ha,3
same,herbicidal effect (0-9 scale) GLXMA,Glycine max [10]; 800 g/ha,3
same,herbicidal effect (0-9 scale) SETVI,Setaria viridis [11]; 400 g/ha,9
same,herbicidal effect (0-9 scale) SETVI,Setaria viridis [11]; 800 g/ha,9
same,herbicidal effect (0-9 scale) ABUTH,Abutilon theophrasti [12]; 400 g/ha,9
same,herbicidal effect (0-9 scale) ABUTH,Abutilon theophrasti [12]; 800 g/ha,9
same,herbicidal effect (0-9 scale) ABUTH,Abutilon theophrasti [13]; 400 g/ha,9
same,herbicidal effect (0-9 scale) ABUTH,Abutilon theophrasti [13]; 800 g/ha,9
same,herbicidal effect (0-9 scale) GALAP,Galium aparine [14]; 400 g/ha,9
same,herbicidal effect (0-9 scale) GALAP,Galium aparine [14]; 800 g/ha,9
same,herbicidal effect (0-9 scale) ZEAMX,Zea mays [15]; 400 g/ha,6
same,herbicidal effect (0-9 scale) ZEAMX,Zea mays [15]; 800 g/ha,8
same,herbicidal effect (0-9 scale) TRZAW,Triticum aestivum [16]; 400 g/ha,3
same,herbicidal effect (0-9 scale) TRZAW,Triticum aestivum [16]; 800 g/ha,6
same,herbicidal effect (0-9 scale) MATIN,Matricaria inodora [17]; 400 g/ha,9
same,herbicidal effect (0-9 scale) MATIN,Matricaria inodora [17]; 800 g/ha,9
same,herbicidal effect (0-9 scale) TRZAW,Triticum aestivum [18]; 400 g/ha,4
same,herbicidal effect (0-9 scale) TRZAW,Triticum aestivum [18]; 800 g/ha,4
same,herbicidal effect (0-9 scale) ZEAMX,Zea mays [19]; 400 g/ha,6
same,herbicidal effect (0-9 scale) ZEAMX,Zea mays [19]; 800 g/ha,8
same,herbicidal effect (0-9 scale) ALOMY,Alopecurus myosuroides; 400 g/ha,8
same,herbicidal effect (0-9 scale) ALOMY,Alopecurus myosuroides; 800 g/ha,9
same,herbicidal effect (0-9 scale) HORVW,Hordeum vulgare [20]; 400 g/ha,5
same,herbicidal effect (0-9 scale) HORVW,Hordeum vulgare [20]; 800 g/ha,6
same,herbicidal effect (0-9 scale) STEME,Stellaria media [21]; 400 g/ha,9
same,herbicidal effect (0-9 scale) STEME,Stellaria media [21]; 800 g/ha,9
same,herbicidal effect (0-9 scale) ECHCG,Echinochloa crus-galli [22]; 400 g/ha,8
same,herbicidal effect (0-9 scale) ECHCG,Echinochloa crus-galli [22]; 800 g/ha,8
